These results are taken from paper PMC8838850, “Synthesis, Antimicrobial, Anti-Virulence and Anticancer Evaluation of New 5(4H)-Oxazolone-Based Sulfonamides” (Molecules, 2022).

Series [1] deals with P. aeruginosa. Put plainly: Assay of protease production (casein substrate). The note with it: sub-MIC. It counts as cell-based, Pseudomonas aeruginosa. The procedure:
The effect of compounds 5, 7 and 10 on the production of protease was evaluated using casein substrate as described earlier. Briefly, overnight cultures of P. aeruginosa and S. aureus were cultivated in LB broth in the presence or absence of compounds 5, 7 and 10 at ½ MIC for 24 h at 37 °C. The supernatants were collected, mixed (1:1) with 0.05 M casein in phosphate buffer (2%) and NaOH (0.1 M) at pH 7.0, and incubated for 15 min at 37 °C. The reaction was stopped by adding 2 mL of 0.4 M trichloroacetic acid for 30 min at 25 °C. Any precipitates were removed, and the optical densities were detected at 660 nm. The assays were performed in triplicate and the obtained optical densities of tested strains treated with compounds 5, 7 and 10 were expressed as mean ± standard error of percentage change from untreated tested strains control (positive control) and LB (negative control). The protease inhibition percentages were calculated: (O.D control—O.D tested compounds)/O.D control.

For series [2], the system named is S. aureus. Put plainly: Assay of hemolytic activity. It counts as cell-based, Staphylococcus aureus. The note with it: sub-MIC. The procedure: The anti-virulence effects of compounds 5, 7 and 10 on hemolytic activity of tested P. aeruginosa and S. aureus strains were assessed as described previously. Optically adjusted bacterial cultures treated or untreated with tested compounds at sub-MIC were centrifuged, and 0.5 mL of supernatants were mixed with fresh 0.8 mL 2% erythrocyte (obtained from experimental animals) suspension in saline, and incubated for 2 h at 37 °C. A complete hemolysis positive control was prepared by addition of sodium dodecyl sulphate (SDS) to erythrocyte suspension, and negative control was prepared by incubation of erythrocytes in LB broth under the same conditions. After centrifugation, the absorbances of the lysed erythrocytes were measured at 540 nm by Biotek spectrofluorometer (Biotek, Winooski, VT, USA). The experiment was performed in triplicate, and the hemolysis of tested compound treated cultures were expressed as mean ± standard error of percentages compared with those obtained from untreated control cultures using the formula: (absorbance in presence or absence of tested compounds—absorbance of negative control)/(absorbance of positive control—absorbance of negative control).

`Cc1ccc(S(=O)(=O)Nc2ccccc2C2=N/C(=C/c3ccc([N+](=O)[O-])cc3)C(=O)O2)cc1` [Compound 9f, (E)-4-Methyl-N-(2-(4-(4-nitrobenzylidene)-5-oxo-4,5-dihydrooxazol-2-yl)phenyl)benzenesulfonamide] showed a melting point of 250 to 252 °C. Further, in series [1], the Production of protease entry is recorded as “significantly reduced the production of protease”. Further, the Hemolytic activity entry in series [2] was “significantly diminished the hemolytic activity”.
The corresponding values for `Cc1ccc(S(=O)(=O)Nc2ccccc2C2=N/C(=C/c3ccccc3)C(=O)O2)cc1` [Compound 9a, (E)-N-(2-(4-Benzylidene-5-oxo-4,5-dihydrooxazol-2-yl)phenyl)-4-methylbenzenesulfonamide] are 214 to 216 °C, “significantly reduced the production of protease” and “significantly diminished the hemolytic activity”.
Turning to `COc1ccc(/C=C2/N=C(c3ccccc3NS(=O)(=O)c3ccc(C)cc3)OC2=O)cc1` [Compound 9b, (E)-N-(2-(4-(4-Methoxybenzylidene)-5-oxo-4,5-dihydrooxazol-2-yl)phenyl)-4-methylbenzenesulfonamide], the Production of protease result in series [1] was “significantly reduced the production of protease”. Besides, in series [2], the Hemolytic activity result was “significantly diminished the hemolytic activity”.
